# Assay results reported in patent US11597724B2, “Herbicidally active 3-phenylisoxazoline-5-carboxamides of tetrahydro and dihydrofuran carboxylic acids and esters” (Bayer Aktiengesellschaft, priority 2017, dated 2023).
# Assays:
# Format in all cases: in vivo
# Echinochloa crus-galli = test: Pre-emergence herbicidal activity against ECHCG; conditions: dosage 80 g/ha, scored visually after about 3 weeks vs untreated controls (100% = plants have died, 0% = like control plants); for pest or weed control at 80 g/ha: Echinochloa crus-galli, 504 h
# Text: (§1) 1. Pre-Emergence Herbicidal Action and Crop Plant Compatibility Seeds of monocotyledonous and dicotyledonous weed plants and crop plants are placed in plastic or wood fiber pots and covered with soil. The compounds of the invention, formulated in the form of wettable powders (WP) or as emulsion concentrates (EC), are then applied onto the surface of the covering soil as aqueous suspension or emulsion with addition of 0.5% additive at a water application rate of 600 l/ha (converted). After the treatment, the pots are placed in a greenhouse and kept under good growth conditions for the trial plants. After about 3 weeks, the effect of the preparations is scored visually in comparison with untreated controls as percentages. For example, 100% activity=the plants have died, 0% activity=like control plants. ECHCG: Echinochloa crus-galli HORMU: Hordeum murinum
# [1] = Pre-emergence treatment, summary over harmful plants; conditions: 504 h, application rate of 0.08 kg of active substance or less per hectare, read-out: herbicidal action, pre-emergence treatment (very good activity)
# Text: 1. Pre-Emergence Herbicidal Action and Crop Plant Compatibility
# as §1, with “Seeds” for “1. Pre-Emergence Herbicidal Action and Crop Plant Compatibility Seeds”, “plants.” for “plants. ECHCG: Echinochloa crus-galli HORMU: Hordeum murinum”
# As shown by the results, compounds according to the invention such as, for example, the compounds No. I-21 and other compounds from the tables (for example I-10, I-26, I-09, I-30, I-28, I-29, I-27, I-01, I-06, I-34, I-19, I-11, I-36, I-37, I-38, I-41, I-42, I-43, I-44, I-46, I-49) have, when used for pre-emergence treatment, very good activity (80% to 100% herbicidal action) against harmful plants such as Abutilon theophrasti, Alopecurus myosuroides, Amaranthus retroflexus, Avena fatua, Echinochloa crus-galli, Hordeum murinum, Lolium rigidum, Pharbitis purpurea, Polygonum convolvulus, Setaria viridis, Stellaria media, Veronica persica and Viola tricolor at an application rate of 0.08 kg of active substance or less per hectare.
# Viola tricolor = test: Pre-emergence herbicidal activity against VIOTR; conditions: dosage 80 g/ha
# Text: as §1, with “VIOTR: Viola tricolor” for “ECHCG: Echinochloa crus-galli HORMU: Hordeum murinum”
SMILES,Pre-emergence herbicidal activity against ECHCG in % (Echinochloa crus-galli),pest or weed control at 80 g/ha (Echinochloa crus-galli),pest or weed control at 80 g/ha [1],Pre-emergence herbicidal activity against VIOTR in % (Viola tricolor)
CC1(C(=O)NC2COC(C(=O)O)C2)CC(c2cc(F)cc(F)c2)=NO1 (mixture of isomers) [I-41],100%,,,
"COC(=O)[C@H]1C[C@@H](NC(=O)C2(C)CC(c3cc(F)cc(F)c3)=NO2)CO1 (relative stereo) [I-01, methyl cis-4-[[3-(3,5-difluorophenyl)-5-methyl-4H-isoxazole-5-carbonyl]amino]tetrahydrofuran-2-carboxylate]",,80%,80 to 100%,
"COC(=O)C1COCC1NC(=O)C1(C)CC(c2cc(F)cc(F)c2)=NO1 (stereo not drawn) [I-19, methyl 4-[[3-(3,5-difluorophenyl)-5-methyl-4H-isoxazole-5-carbonyl]amino]tetrahydrofuran-3-carboxylate]",,,80 to 100%,
CCOC(=O)C1CC(NC(=O)C2(C)CC(c3cc(F)cc(F)c3)=NO2)CO1 (mixture of isomers) [I-43],100%,,,90%
"COC(=O)C1COCC1NC(=O)C1(OC)CC(c2cc(Cl)cc(Cl)c2)=NO1 (stereo not drawn) [I-29, methyl 4-[[3-(3,5-dichlorophenyl)-5-methoxy-4H-isoxazole-5-carbonyl]amino]tetrahydrofuran-3-carboxylate]",,,80 to 100%,
"C=C[C@]1(C(=O)N[C@H]2CO[C@@H](C(=O)OC)C2)CC(c2cc(F)cc(F)c2)=NO1 (single isomer, unassigned) [I-12]",,90%,,100%
"C=C[C@]1(C(=O)NC2COCC2C(=O)OC)CC(c2cc(F)cc(F)c2)=NO1 (stereo partly drawn) [I-26, methyl 4-[[(5S)-3-(3,5-difluorophenyl)-5-vinyl-4H-isoxazole-5-carbonyl]amino]tetrahydrofuran-3-carboxylate]",,90%,80 to 100%,
CC1(C(=O)NC2COC(C(=O)OCc3ccccc3)C2)CC(c2cc(F)cc(F)c2)=NO1 (mixture of isomers) [I-45],100%,,,100%
"C=CC1(C(=O)N[C@H]2CO[C@@H](C(=O)O)C2)CC(c2cc(F)cc(F)c2)=NO1 (relative stereo) [I-21, cis-4-[[3-(3,5-difluorophenyl)-5-vinyl-4H-isoxazole-5-carbonyl]amino]tetrahydrofuran-2-carboxylic acid]",,100%,80 to 100%,
"COC(=O)C1=C[C@@H](NC(=O)C2(C)CC(c3cccc(F)c3)=NO2)CO1 (stereo partly drawn) [I-46, methyl (3R)-3-[[3-(3-fluorophenyl)-5-methyl-4H-isoxazole-5-carbonyl]amino]-2,3-dihydrofuran-5-carboxylate]",,90%,80 to 100%,
"COC(=O)C1COCC1NC(=O)[C@@]1(C)CC(c2cc(F)cc(F)c2)=NO1 (stereo partly drawn) [I-28, methyl 4-[[(5R)-3-(3,5-difluorophenyl)-5-methyl-4H-isoxazole-5-carbonyl]amino]tetrahydrofuran-3-carboxylate]",,90%,80 to 100%,
CC(C)OC(=O)C1CC(NC(=O)C2(C)CC(c3cc(F)cc(F)c3)=NO2)CO1 (stereo not drawn) [I-44],90%,,,80%
"CC1(C(=O)N[C@H]2CO[C@@H](C(=O)OCc3ccccc3)C2)CC(c2cccc(F)c2)=NO1 (mixture of isomers) [I-34, benzyl cis-4-[[(5RS)-3-(3-fluorophenyl)-5-methyl-4H-isoxazole-5-carbonyl]amino]tetrahydrofuran-2-carboxylate]",,80%,80 to 100%,
"CCOC(=O)[C@H]1C[C@@H](NC(=O)C2(C)CC(c3cccc(F)c3)=NO2)CO1 (mixture of isomers) [I-30, ethyl cis-4-[[(5RS)-3-(3-fluorophenyl)-5-methyl-4H-isoxazole-5-carbonyl]amino]tetrahydrofuran-2-carboxylate]",,,80 to 100%,
